From the CheMixHub viscosity set
± gives the uncertainty stated by the source.

Assay: xn = mol fraction of the nth substance listed

CC1COC(=O)O1 (stereo unspecified) + CC(C)O
viscosity [mPa·s], 101 kPa
Conditions | x1 = 0.0614 | x1 = 0.1283 | x1 = 0.2015 | x1 = 0.2818 | x1 = 0.3706 | x1 = 0.469 | x1 = 0.5787 | x1 = 0.7019 | x1 = 0.8412
298.15 K | 1.84 ± 0.02 | 1.74 ± 0.02 | 1.68 ± 0.02 | 1.64 ± 0.02 | 1.64 ± 0.02 | 1.65 ± 0.02 | 1.7 ± 0.02 | 1.8 ± 0.02 | 2.04 ± 0.02
303.15 K | 1.6 ± 0.02 | 1.53 ± 0.01 | 1.46 ± 0.01 | 1.44 ± 0.01 | 1.45 ± 0.01 | 1.48 ± 0.01 | 1.54 ± 0.02 | 1.65 ± 0.02 | 1.85 ± 0.02
308.15 K | 1.44 ± 0.01 | 1.37 ± 0.01 | 1.31 ± 0.01 | 1.29 ± 0.01 | 1.29 ± 0.01 | 1.32 ± 0.01 | 1.39 ± 0.01 | 1.49 ± 0.01 | 1.68 ± 0.02

CC(=O)N(C)c1ccccc1 + c1ccncc1
298.15 K, 101 kPa
Conditions | viscosity [mPa·s]
x1 = 0.0361 | 0.967 ± 0.19
x1 = 0.06268 | 1.022 ± 0.2
x1 = 0.09446 | 1.082 ± 0.22

Cc1ccccc1 + CCO
Conditions | viscosity [mPa·s]
293.2 K, 101.32 kPa, x2 = 0.05 | 0.568 ± 0.015
293.2 K, 101.32 kPa, x2 = 0.136 | 0.587 ± 0.016
293.2 K, 101.32 kPa, x2 = 0.28 | 0.616 ± 0.016
293.2 K, 101.32 kPa, x2 = 0.55 | 0.731 ± 0.019
293.2 K, 101.32 kPa, x2 = 0.735 | 0.861 ± 0.023
303 K, 101 kPa, x1 = 0.1006 | 0.821
303 K, 101 kPa, x1 = 0.2012 | 0.786
303 K, 101 kPa, x1 = 0.3009 | 0.724
303 K, 101 kPa, x1 = 0.3981 | 0.686
303 K, 101 kPa, x1 = 0.5016 | 0.643
303 K, 101 kPa, x1 = 0.6052 | 0.613
303 K, 101 kPa, x1 = 0.7001 | 0.602
303 K, 101 kPa, x1 = 0.8095 | 0.569
303 K, 101 kPa, x1 = 0.9011 | 0.551
303 K, 101.33 kPa, x2 = 0.3333 | 0.574 ± 0.04
303 K, 101.33 kPa, x2 = 0.5714 | 0.651 ± 0.044
303 K, 101.33 kPa, x2 = 0.75 | 0.774 ± 0.051
303 K, 101.33 kPa, x2 = 0.8889 | 0.927 ± 0.06
303.15 K, 101.33 kPa, x1 = 0.0692 | 0.893 ± 0.015
303.15 K, 101.33 kPa, x1 = 0.1849 | 0.803 ± 0.014
303.15 K, 101.33 kPa, x1 = 0.3191 | 0.699 ± 0.012
303.15 K, 101.33 kPa, x1 = 0.5285 | 0.596 ± 0.011
303.15 K, 101.33 kPa, x1 = 0.5858 | 0.575 ± 0.01
303.15 K, 101.33 kPa, x1 = 0.6901 | 0.546 ± 0.01
303.15 K, 101.33 kPa, x1 = 0.7906 | 0.527 ± 0.01
303.15 K, 101.33 kPa, x1 = 0.8565 | 0.519 ± 0.01
303.15 K, 101.33 kPa, x1 = 0.9213 | 0.524 ± 0.01
308.15 K, 101.33 kPa, x1 = 0.0692 | 0.814 ± 0.014
308.15 K, 101.33 kPa, x1 = 0.1849 | 0.736 ± 0.013
308.15 K, 101.33 kPa, x1 = 0.3191 | 0.642 ± 0.011
308.15 K, 101.33 kPa, x1 = 0.5285 | 0.552 ± 0.01
308.15 K, 101.33 kPa, x1 = 0.5858 | 0.533 ± 0.01
308.15 K, 101.33 kPa, x1 = 0.6901 | 0.507 ± 0.007
308.15 K, 101.33 kPa, x1 = 0.7906 | 0.491 ± 0.007
308.15 K, 101.33 kPa, x1 = 0.8565 | 0.486 ± 0.007
308.15 K, 101.33 kPa, x1 = 0.9213 | 0.493 ± 0.007
313 K, 101.33 kPa, x2 = 0.3333 | 0.504 ± 0.036
313 K, 101.33 kPa, x2 = 0.5714 | 0.557 ± 0.039
313 K, 101.33 kPa, x2 = 0.75 | 0.654 ± 0.045
313 K, 101.33 kPa, x2 = 0.8889 | 0.778 ± 0.051
323 K, 101.33 kPa, x2 = 0.3333 | 0.446 ± 0.033
323 K, 101.33 kPa, x2 = 0.5714 | 0.479 ± 0.035
323 K, 101.33 kPa, x2 = 0.75 | 0.557 ± 0.039
323 K, 101.33 kPa, x2 = 0.8889 | 0.648 ± 0.044

O=C([O-])[O-].[K+].[K+] + O
viscosity [mPa·s], 101 kPa
Conditions | 303.15 K | 308.15 K | 313.15 K
x1 = 0.002 | 0.839 ± 0.007 | 0.769 ± 0.007 | 0.703 ± 0.006
x1 = 0.005 | 0.889 ± 0.008 | 0.814 ± 0.007 | 0.745 ± 0.007
x1 = 0.009 | 0.944 ± 0.008 | 0.864 ± 0.008 | 0.793 ± 0.007

COc1ccccc1 + ClCCCl
viscosity [mPa·s]
Conditions | 298.15 K | 303.15 K | 308.15 K | 313.15 K
101 kPa, x1 = 0.0971 | 0.8095 ± 0.021 | 0.7615 ± 0.02 | 0.7135 ± 0.018 | 0.6712 ± 0.017
101 kPa, x1 = 0.1961 | 0.8125 ± 0.021 | 0.7644 ± 0.02 | 0.719 ± 0.019 | 0.6736 ± 0.017
101 kPa, x1 = 0.2958 | 0.8228 ± 0.021 | 0.7712 ± 0.02 | 0.7246 ± 0.019 | 0.6785 ± 0.018
101 kPa, x1 = 0.3963 | 0.8354 ± 0.022 | 0.7823 ± 0.02 | 0.7333 ± 0.019 | 0.6881 ± 0.018
101 kPa, x1 = 0.4918 | 0.8519 ± 0.022 | 0.7983 ± 0.021 | 0.7466 ± 0.019 | 0.7004 ± 0.018
101 kPa, x1 = 0.5946 | 0.8754 ± 0.023 | 0.8183 ± 0.021 | 0.7639 ± 0.02 | 0.715 ± 0.019
101 kPa, x1 = 0.6933 | 0.9012 ± 0.023 | 0.8399 ± 0.022 | 0.7821 ± 0.02 | 0.7319 ± 0.019
101 kPa, x1 = 0.7944 | 0.9299 ± 0.024 | 0.8693 ± 0.023 | 0.8076 ± 0.021 | 0.7519 ± 0.019
101 kPa, x1 = 0.8972 | 0.9672 ± 0.025 | 0.8983 ± 0.023 | 0.834 ± 0.022 | 0.7759 ± 0.02
101.3 kPa, x1 = 0.0479 | – | 0.708 ± 0.012 | – | –
101.3 kPa, x1 = 0.2944 | – | 0.726 ± 0.012 | – | –
101.3 kPa, x1 = 0.3833 | – | 0.74 ± 0.012 | – | –
101.3 kPa, x1 = 0.5479 | – | 0.776 ± 0.013 | – | –
101.3 kPa, x1 = 0.6192 | – | 0.785 ± 0.013 | – | –
101.3 kPa, x1 = 0.6717 | – | 0.797 ± 0.013 | – | –
101.3 kPa, x1 = 0.9751 | – | 0.896 ± 0.014 | – | –

CC1COC(=O)O1 (stereo unspecified) + CC#N
viscosity [mPa·s], 101.3 kPa
Conditions | x1 = 0.0418 | x1 = 0.0892 | x1 = 0.1438 | x1 = 0.2071 | x1 = 0.2815 | x1 = 0.3701 | x1 = 0.4776 | x1 = 0.6104 | x1 = 0.7791
298.15 K | 0.383 ± 0.1 | 0.423 ± 0.1 | 0.479 ± 0.1 | 0.551 ± 0.1 | 0.642 ± 0.1 | 0.778 ± 0.1 | 0.968 ± 0.1 | 1.248 ± 0.1 | 1.675 ± 0.1
303.15 K | 0.363 ± 0.1 | 0.403 ± 0.1 | 0.454 ± 0.1 | 0.521 ± 0.1 | 0.605 ± 0.1 | 0.731 ± 0.1 | 0.906 ± 0.1 | 1.161 ± 0.1 | 1.535 ± 0.1
308.15 K | 0.347 ± 0.1 | 0.384 ± 0.1 | 0.432 ± 0.1 | 0.494 ± 0.1 | 0.575 ± 0.1 | 0.693 ± 0.1 | 0.846 ± 0.1 | 1.078 ± 0.1 | 1.42 ± 0.1
313.15 K | 0.331 ± 0.1 | 0.367 ± 0.1 | 0.411 ± 0.1 | 0.469 ± 0.1 | 0.543 ± 0.1 | 0.654 ± 0.1 | 0.802 ± 0.1 | 1.054 ± 0.1 | 1.31 ± 0.1
318.15 K | 0.316 ± 0.1 | 0.353 ± 0.1 | 0.397 ± 0.1 | 0.455 ± 0.1 | 0.509 ± 0.1 | 0.625 ± 0.1 | 0.76 ± 0.1 | 0.965 ± 0.1 | 1.22 ± 0.1
